System: healthy subjects
Assay: Toronto Empathy Questionnaire (TEQ)
Format: in vivo, human
Description: In some embodiments, the Toronto Empathy Questionnaire (TEQ) is utilized to evaluate the safety and/or efficacy of psilocybin. The TEQ represents empathy as a primarily emotional process. […] The TEQ is a brief, reliable and valid instrument for the assessment of empathy. In some embodiments, after treating according to the methods of the disclosure, a subject's TEQ score increases by about 5%, about 10%, about 15%, about 20%, about 25%, about 30%, about 35%, about 40%, about 45%, about 50%, about 55%, about 60%, about 65%, about 70%, about 75%, about 80%, about 85%, about 90%, about 95%, or about 100%, about 110%, about 120%, about 130%, about 140%, about 150%, about 160%, about 170%, about 180%, about 190%, about 200%, about 210%, about 220%, about 230%, about 240%, about 250%, about 260%, about 270%, about 280%, about 290%, or about 300%, or more, compared to prior to treatment.
The following list of outcome measures are non-exhaustive. • a. The short-term change from Baseline (Day −1 [Visit 2]) to Day 7 (Visit 5) in cognitive measures of attention, spatial and working memory and executive function was measured by a composite score of the CANTAB Panel (Spatial Working Memory [SWM], Rapid Visual Information Processing [RVP], Paired Associates Learning [PAL]). • b. The short-term change from Baseline (Day −1 [Visit 2]) to Day 7 (Visit 5) in Social Cognition Panel scales (Pictorial Empathy Test [PET], Reading the Mind in the Eyes Test [RMET], Toronto Empathy Questionnaire [TEQ], Social Value Orientation [SVO], Scale of Social Responsibility [SSR]). • c. The change from Baseline (Day −1 [Visit 2]) to Day 28 (Visit 6) in cognitive measures of attention, spatial and working memory and executive function as measured by a composite score of the CANTAB Panel (SWM, RVP, PAL). • d. The long-term change from Baseline (Day −1 [Visit 2]) to Day 84 (Visit 7) in Social Cognition Panel scales (PET, RMET, TEQ, SVO, SSR). • e. Dose-related differences between cognitive effects of psilocybin at Baseline (Day −1 [Visit 2]), Day 7 (Visit 5) and Day 28 (Visit 6), as measured by a composite score of the CANTAB Panel (SWM, RVP, PAL). • f. Dose-related differences between psychological effects of psilocybin at Baseline (Day −1 [Visit 2]), Day 7 (Visit 5) and Day 84 (Visit 7), as measured by Social Cognition Panel scales (PET, RMET, TEQ, SVO, SSR). • g. Differences in cognitive effects of psilocybin between psilocybin-naïve and experienced subjects at Baseline (Day −1 [Visit 2]), Day 7 (Visit 5) and Day 28 (Visit 6), as measured by a composite score of the CANTAB Panel (SWM, RVP, PAL). • h. Differences in Positive and Negative Affect Schedule (PANAS) after study drug administration on Day 0 (Visit 3). • i. Differences between psilocybin and placebo in the Emotion Recognition Test (ERT), Intra-Extra Dimensional Set Shift (IED), One Touch Stockings (OTS), Verbal Fluency and Digit Span Forward at Day 7 (Visit 5). • j. A composite score of the CANTAB Panel, including the following tests: • i. Spatial Working Memory (SWM) (performed at Visit 2, Visit 5, and Visit 6). • ii. Rapid Visual Information Processing (RVP) (performed at Visit 2, Visit 5, and Visit 6). • iii. Paired Associates Learning (PAL) (performed at Visit 2, Visit 5, and Visit 6). • k. Cognitive Flexibility Panel • i. Emotion Recognition Task (ERT) (performed at Visit 5). • ii. Intra-Extra Dimensional Set Shift (IED) (performed at Visit 5). • iii. One Touch Stockings (OTS) (performed at Visit 5). • iv. Verbal Fluency (performed at Visit 5). • v. Digit Span Forward (performed at Visit 5). • l. Five Dimension Altered States of Consciousness questionnaire (5D-ASC) (performed at Visit 3). • m. PANAS (performed at Visit 2 and Visit 3). • n. NEO-Five Factor Inventory (NEO-FFI) (performed at Visit 2, Visit 5, and Visit 7). • o. Symptom Checklist-90 item (SCL-90) (performed at Visit 2, Visit 5, and Visit 7). • p. […]

CN(C)CCc1c[nH]c2cccc(OP(=O)(O)O)c12 [psilocybin]
TEQ change from baseline, LS mean difference Psilocybin 10 mg - Placebo (Day 7, MMRM): 0.1 | TEQ change from baseline, LS mean difference Psilocybin 25 mg - Placebo (Day 7, MMRM): 0.2 | TEQ change from baseline, LS mean difference Psilocybin 25 mg-10 mg (Day 7, MMRM): 0.1 | TEQ change from baseline, LS mean difference Psilocybin 10 mg - Placebo (Day 84, MMRM): 0.1 | TEQ change from baseline, LS mean difference Psilocybin 25 mg - Placebo (Day 84, MMRM): 0.1 | TEQ change from baseline, LS mean difference Psilocybin 25 mg-10 mg (Day 84, MMRM): 0.0 | TEQ change from baseline, LS mean (Psilocybin 10 mg, Day 84, MMRM): −0.1 | TEQ change from baseline, LS mean (Psilocybin 25 mg, Day 84, MMRM): −0.0

— patent publication US11865126B2, “Method for treating anxiety disorders, headache disorders, and eating disorders with psilocybin” (priority 2019, dated 2024)
